Measurements from US20020107195A1, “Method for inducing chemotaxis in endothelial cells by administering stromal cell derived factor-1alpha” (SmithKline Beecham Corporation, priority 1998, published 2002).
Entries after “also recorded” stand apart in the source; their conditions may differ. *1 amine or outer side, *2 acyl side, *3 side chain or, on linkers, in order; H or OH if unused. Where a SMILES comes first, the peptide text is derived from it. Bridges are numbered along the chain shown (N, C = ends). Roman numbers before positions name the chains, in order. [ ]: non-standard residue; d: D form. Actinocin(9to1) = Cc1c2oc3c(C)ccc(C(=O)[*:1])c3nc-2c(C(=O)[*:2])c(N)c1=O; NMeV = CN[C@H](C(=O)O)C(C)C; Sar = CNCC(=O)O

Tests used:
Type in all cases: cell-based, human
HUVEC [1] = assay: Measurement of intracellular calcium [Ca2+]i in EC (fura-2); details: for elevation of [Ca+2]i (mobilization of intracellular Ca2+): HUVEC / EC
Procedure: For measurements of intracellular calcium [Ca^2+]i, EC were loaded with 2 μM fura-2/AM (Molecular Probes, Eugene, OR), rinsed with 1 mM EDTA in Dulbecco's PBS, and resuspended into Kreb's Ringer's Henseleit (KRH) buffer, pH 7.4, containing 0.1% gelatin. Cells (1x 10^6/ml) were stored on ice and diluted for use 1:1 with fresh KRH buffer at 37° C. Fluorescence of fura-2 in cells was measured with a University of Pennsylvania Biomedical Instruments Group dual channel fluorometer. Data was captured as voltage recordings with the aid of a PC and analyzed by Igor version 1.28 software (WaveMetrics, Lake Oswego, Oreg.). Chemokines were added from concentrated stocks in water. To establish the integrity of EC, we also measured [Ca^2+]i stimulated by thrombin.
To determine whether the human EC express a functional CXCR4 receptor, our subsequent studies used SDF-1α along with several other chemokines to assess their ability to induce changes in intracellular levels of Ca^+2 and cause migration. […] In contrast, other chemokines like γ-IP10, IL-8, PF-4, MIP-1α, MCP-1, eotaxin and RANTES had no effect on EC.

HUVEC [2] = assay: HUVEC migration (chemotaxis) assay, Transwell; details: for effect on EC chemotaxis: HUVEC
Procedure: HUVEC migration assay was performed using 5×10^5 cells/well (in CS-C medium) in the top chamber of a 6.5 mm diameter, 8-μM pore polycarbonate Transwell culture insert (Costar, Cambridge, Mass.) as reported previously (36). Incubation was carried out at 37° C. in 5% CO2 for 20 hrs. After incubation, migrated cells in the lower chamber were counted with a ZM Coulter counter (Coulter Diagnostics, Hialeah, Fla.). Percent migration was calculated based on the total initial input cells per well.
The Applicant next studied the chemotactic response of EC to SDF-1α. SDF-1α induced a pronounced migration of ˜40% of input EC in a concentration-related manner with an EC50 of 10-20 nM. It is intriguing to observe the high percentage of EC that migrated in response to SDF-1α, even though EC have limited migratory capability in comparison with neutrophils and monocytes. In contrast with other EC chemo-attractants like vitronectin, the chemotactic response to SDF-1α was kinetically robust, and a majority of the migrated cells entered the lower chamber without adhering to the Transwell filter. In these experiments, other chemokines like γ-IP10, IL-8, MIP-1α, MCP-1, eotaxin and RANTES had no effect on EC chemotaxis. Taken together, these observations have obvious biological significance, in that they indicate that SDF-1α plays a role in re-endothelialization after injury, an event that requires the directed migration of EC.

CXCR4 mRNA = assay: Northern blot analysis of steady state CXCR4 mRNA levels in HUVEC treated with mediators; details: for CXCR4 mRNA levels (normalized against GAPDH): HUVEC, after 24 hours of treatment
Procedure: Total RNA (10 μg/lane) was fractionated on 1% agarose-formaldehyde gels, transferred to a nylon membrane (Amersham Corp., Piscataway, N.J.) and covalently linked with a UV crosslinker (Stratagene Inc., La Jolla, Calif.). For Northern analysis, 515-base pair size cDNA probes of CXCR1, CXCR2, CXCR3, CXCR4, CCR1, CCR2 and CCR3, were used. The GAPDH gene probe (Clontech, Palo Alto, Calif.) was used to normalize RNA sample differences in each lane. The probes were labeled with [a-^32P] dCTP using a random-prime labeling kit (Promega Corp., Madison, Wis.), and hybridized overnight at 42° C. in 6X SSC buffer (1X SSC=150 mM NaCL, 15 mM Na Citrate), .1% sodium dodecyl sulfate, 5X Denhardt's solution, 50% formamide, and 100 μg/ml denatured salmon sperm DNA. Membranes were washed with a final stringency of 0.2X SSC at 60° C., and analyzed with a phosphorimager (Molecular Dynamics, Inc., Sunnyvale, Calif.) after exposure at room temperature for 3-5 days. Densitometry was used for quantitative analysis.
CXCR4 transcripts are well expressed in many non-hematopoietic vascular tissues like heart, brain, lung and colon. Federsppiel, et al. Genomics 16: 707-712 (1993). However, at the cellular level, this expression was selective for EC, as indicated by the failure of total RNA from human pulmonary artery smooth muscle cells (HPASMC) to hybridize with the CXCR4 cDNA probe. To understand the regulation of CXCR4 in EC during inflammation, we treated the HUVEC with various mediators and measured its steady state mRNA levels after normalization against the GAPDH cDNA probe.
In order to understand the kinetics of inflammation mediated transcriptional regulation of CXCR4, actinomycin D was used to determine the half-life of CXCR4 mRNA. […] Many cytokines and cytokine receptors, including CXCR4, have A-U rich elements in their untranslated regions that serve as targeting motifs for transcript degradation by specific RNAses. Shaw, et al., Cell 46: 659-667 (1986). In addition to its action as a transcriptional inhibitor, actinomycin D also has the unique and immediate effect of imparting stability to existing transcripts of mRNA undergoing rapid turnover.

Row | Molecule | elevation of [Ca+2]i (mobilization of intracellular Ca2+) (HUVEC [1]) | effect on EC chemotaxis (HUVEC [2]) | CXCR4 mRNA levels (normalized against GAPDH) (CXCR4 mRNA) | other results
1 | MCP-1: chemokine from R&D Systems | no effect | no effect | – | –
2 | Cc1c2oc3c(C)ccc(C(=O)N[C@@H]4C(=O)N[C@H](C(C)C)C(=O)N5CCC[C@H]5C(=O)N(C)CC(=O)N(C)[C@@H](C(C)C)C(=O)O[C@@H]4C)c3nc-2c(C(=O)N[C@@H]2C(=O)N[C@H](C(C)C)C(=O)N3CCC[C@H]3C(=O)N(C)CC(=O)N(C)[C@@H](C(C)C)C(=O)O[C@@H]2C)c(N)c1=O [actinomycin D] (I: T[dV]P[Sar][NMeV] / II: T[dV]P[Sar][NMeV]; ester I:1-I:C, II:1-II:C; linker I:N-II:N via Actinocin(9to1)) | – | – | almost complete abrogation | steady state levels of CXCR4 mRNA after short term exposure (CXCR4 mRNA; EC cultures, exposure of only 15-30 minutes): sharply increasing
3 | IL-1β: recombinant human IL-1β purchased from Genzyme | – | – | significant induction | –
4 | γ-IP10: chemokine from R&D Systems | no effect | no effect | no effect | –
5 | IL-8: chemokine from R&D Systems | no effect | no effect | – | –
6 | eotaxin: chemokine from R&D Systems | no effect | no effect | – | –
7 | SDF-1α: stromal cell derived factor-1α, polypeptide of SEQ ID NO:4, CXC chemokine ligand of CXCR4; obtained from Gryphon Sciences | rapid, though variable elevation; also recorded: induced a rapid mobilization | – | – | concentration of maximal [Ca+2]i response (HUVEC [1]; HUVEC): 100 nM; migration, percent of input EC (HUVEC [2]; 20 hrs incubation, Transwell): ~40%; EC50 (HUVEC [2]; concentration-related migration of EC): 10 to 20 nM
8 | IFN-γ: recombinant human IFN-γ purchased from Genzyme | – | – | decrease | –
9 | TNF-α | – | – | to a lesser extent, TNF-α, caused a decrease | –
10 | TGF-β | – | – | no effect | –
11 | PF-4: chemokine from R&D Systems (protein, UniProt P02776 32-101, looked up) Platelet factor 4: EAEEDGDLQCLCVKTTSQVRPRHITSLEVIKAGPHCPTAQLIATLKNGRKICLDLQAPLYKKIIKKLLES | no effect | – | – | –
12 | RANTES: chemokine from R&D Systems (protein, UniProt P13501 24-91, looked up) C-C motif chemokine 5: SPYSSDTTPCCFAYIARPLPRAHIKEYFYTSGKCSNPAVVFVTRKNRQVCANPEKKWVREYINSLEMS | no effect | no effect | – | –
13 | MIP-1α: chemokine from R&D Systems (protein, UniProt P10147 24-92, looked up) C-C motif chemokine 3: SLAADTPTACCFSYTSRQIPQNFIADYFETSSQCSKPGVIFLTKRSRQVCADPSEEWVQKYVSDLELSA | no effect | no effect | – | –
